Test results taken from the NIST ThermoML archive (doi:10.1016/j.fluid.2018.05.028).

Test: xn = mol fraction of the nth substance listed
Details: 101 kPa, Liquid; for viscosity: Concentric cylinders viscometry; for speed of sound: Single path-length method; for mass density: Vibrating tube method

CCCCCCCCCCCCCCCC [hexadecane] + CCCO
Details	mass density [kg/m3]	speed of sound [m/s]	viscosity [mPa·s]
293.15 K, x2 = 0	773.35	1357.4	3.408
293.15 K, x2 = 0.1	773.48	1349.3	3.214
293.15 K, x2 = 0.2	774.05	1342.3	3.093
293.15 K, x2 = 0.3	774.88	1334.9	2.99
293.15 K, x2 = 0.4	776.01	1326.8	2.916
293.15 K, x2 = 0.5	777.51	1317.5	2.845
293.15 K, x2 = 0.6	779.56	1306.4	2.776
293.15 K, x2 = 0.7	782.34	1293.2	2.671
293.15 K, x2 = 0.8	786.35	1275.7	2.541
293.15 K, x2 = 0.9	792.43	1252.8	2.388
298.15 K, x2 = 0	769.87	1338.5	3.035
298.15 K, x2 = 0.1	769.92	1330.3	2.858
298.15 K, x2 = 0.2	770.46	1323.2	2.754
298.15 K, x2 = 0.3	771.25	1315.8	2.665
298.15 K, x2 = 0.4	772.34	1307.7	2.596
298.15 K, x2 = 0.5	773.81	1298.5	2.526
298.15 K, x2 = 0.6	775.81	1287.5	2.463
298.15 K, x2 = 0.7	778.55	1274.5	2.374
298.15 K, x2 = 0.8	782.5	1257.4	2.264
298.15 K, x2 = 0.9	788.52	1234.9	2.131
303.15 K, x2 = 0	766.4	1319.8	2.708
303.15 K, x2 = 0.1	766.38	1311.4	2.55
303.15 K, x2 = 0.2	766.87	1304.3	2.45
303.15 K, x2 = 0.3	767.62	1296.9	2.376
303.15 K, x2 = 0.4	768.67	1288.8	2.314
303.15 K, x2 = 0.5	770.09	1279.7	2.244
303.15 K, x2 = 0.6	772.04	1268.8	2.187
303.15 K, x2 = 0.7	774.73	1256	2.108
303.15 K, x2 = 0.8	778.64	1239.2	2.012
303.15 K, x2 = 0.9	784.59	1217.2	1.89
308.15 K, x2 = 0	762.95	1301.3	2.432
308.15 K, x2 = 0.1	762.83	1292.8	2.288
308.15 K, x2 = 0.2	763.27	1285.6	2.201
308.15 K, x2 = 0.3	763.98	1278.2	2.13
308.15 K, x2 = 0.4	764.98	1270.1	2.073
308.15 K, x2 = 0.5	766.36	1261	2.01
308.15 K, x2 = 0.6	768.26	1250.2	1.952
308.15 K, x2 = 0.7	770.89	1237.6	1.88
308.15 K, x2 = 0.8	774.74	1221.1	1.795
308.15 K, x2 = 0.9	780.63	1199.5	1.687
313.15 K, x2 = 0	759.49	1283.1	2.199
313.15 K, x2 = 0.1	759.29	1274.3	2.067
313.15 K, x2 = 0.2	759.67	1267.1	1.989
313.15 K, x2 = 0.3	760.33	1259.6	1.925
313.15 K, x2 = 0.4	761.29	1251.5	1.871
313.15 K, x2 = 0.5	762.61	1242.4	1.812
313.15 K, x2 = 0.6	764.45	1231.7	1.756
313.15 K, x2 = 0.7	767.03	1219.3	1.691
313.15 K, x2 = 0.8	770.82	1203.1	1.614
313.15 K, x2 = 0.9	776.63	1182	1.515
318.15 K, x2 = 0	756.05	1265	1.996
318.15 K, x2 = 0.1	755.74	1256	1.874
318.15 K, x2 = 0.2	756.07	1248.7	1.8
318.15 K, x2 = 0.3	756.67	1241.2	1.743
318.15 K, x2 = 0.4	757.58	1233	1.69
318.15 K, x2 = 0.5	758.84	1224	1.634
318.15 K, x2 = 0.6	760.62	1213.3	1.58
318.15 K, x2 = 0.7	763.14	1201.1	1.519
318.15 K, x2 = 0.8	766.85	1185.1	1.448
318.15 K, x2 = 0.9	772.59	1164.4	1.357
323.15 K, x2 = 0	752.61	1247.1	1.823
323.15 K, x2 = 0.1	752.19	1237.9	1.708
323.15 K, x2 = 0.2	752.45	1230.5	1.639
323.15 K, x2 = 0.3	753	1222.9	1.587
323.15 K, x2 = 0.4	753.84	1214.7	1.537
323.15 K, x2 = 0.5	755.05	1205.6	1.484
323.15 K, x2 = 0.6	756.76	1195.1	1.432
323.15 K, x2 = 0.7	759.22	1182.9	1.375
323.15 K, x2 = 0.8	762.85	1167.2	1.308
323.15 K, x2 = 0.9	768.51	1147	1.223
328.15 K, x2 = 0	749.18	1229.3	1.671
328.15 K, x2 = 0.1	748.64	1220	1.565
328.15 K, x2 = 0.2	748.83	1212.4	1.499
328.15 K, x2 = 0.3	749.32	1204.7	1.452
328.15 K, x2 = 0.4	750.09	1196.5	1.403
328.15 K, x2 = 0.5	751.23	1187.4	1.352
328.15 K, x2 = 0.6	752.86	1176.8	1.303
328.15 K, x2 = 0.7	755.25	1164.8	1.248
328.15 K, x2 = 0.8	758.8	1149.4	1.186
328.15 K, x2 = 0.9	764.37	1129.5	1.106
333.15 K, x2 = 0	745.74	1211.8	1.537
333.15 K, x2 = 0.1	745.09	1202.2	1.438
333.15 K, x2 = 0.2	745.2	1194.5	1.375
333.15 K, x2 = 0.3	745.61	1186.7	1.331
333.15 K, x2 = 0.4	746.31	1178.5	1.284
333.15 K, x2 = 0.5	747.38	1169.2	1.237
333.15 K, x2 = 0.6	748.93	1158.7	1.19
333.15 K, x2 = 0.7	751.24	1146.8	1.138
333.15 K, x2 = 0.8	754.7	1131.5	1.079
333.15 K, x2 = 0.9	760.17	1112.1	1.004
338.15 K, x2 = 0	742.31	1194.4	1.421
338.15 K, x2 = 0.1	741.53	1184.6	1.329
338.15 K, x2 = 0.2	741.55	1176.7	1.266
338.15 K, x2 = 0.3	741.89	1168.8	1.226
338.15 K, x2 = 0.4	742.52	1160.5	1.179
338.15 K, x2 = 0.5	743.5	1151.2	1.134
338.15 K, x2 = 0.6	744.97	1140.7	1.087
338.15 K, x2 = 0.7	747.19	1128.8	1.039
338.15 K, x2 = 0.8	750.55	1113.7	0.9835
338.15 K, x2 = 0.9	755.91	1094.6	0.9119
343.15 K, x2 = 0	738.88	1177.5	1.316
343.15 K, x2 = 0.1	737.98	1167.2	1.23
343.15 K, x2 = 0.2	737.89	1159.1	1.168
343.15 K, x2 = 0.3	738.15	1151.1	1.131
343.15 K, x2 = 0.4	738.69	1142.7	1.085
343.15 K, x2 = 0.5	739.59	1133.3	1.042
343.15 K, x2 = 0.6	740.96	1122.7	0.9894
343.15 K, x2 = 0.7	743.08	1110.9	0.9461
343.15 K, x2 = 0.8	746.33	1095.9	0.8985
343.15 K, x2 = 0.9	751.58	1077.1	0.8305
